Measurements: patent US12606517B2, “Ibuprofen ester derivative and emulsion preparation thereof” (NANJING HERON PHARMACEUTICAL SCIENCE AND TECHNOLOGY CO., …, priority 2021, dated 2026)
“Also recorded” adds a separate entry of the source.

Legend:
[1] = Pharmacokinetics of PEG400 solution versus emulsion injection in rats (Test Example 5); format: in vivo; conditions: tail vein, equimolar dose
Description: The PEG solution (3250 μL) of the test compound was pipetted into a 10 mL EP tube, 1750 μL of normal saline was added into the tube with the dispensing gun, and the mixture was vortexed to be uniformly mixed to obtain a dosing solution with a concentration of 1.3 mg/mL and a volume of 5 mL.
Method for preparing the test solution of N9(S) (emulsion injection): an emulsion injection (215 μL) containing N9(S) compound (the content of which was 60 mg/mL) was added into a 15 mL EP tube and 10 mL of normal saline was added into the tube with a dispensing gun to obtain a dosing solution with a concentration of 1.3 mg/mL and […].

[2] = Metabolism of the compound in human plasma in vitro; format: in vitro ADME
Description: In the present application, the conversion characteristics of Compound N9 and its isomers were evaluated by establishing an in vitro human plasma metabolism model. The test scheme was as follows: • (1) stock solutions (40 mM) of Compounds N9, N9(S) and N9(R) in pure acetonitrile were formulated respectively, and a stock solution (40 mM) of ibuprofen in pure acetonitrile was formulated; • (2) 25 μL stock solution of ibuprofen was mixed with 1 mL of human plasma and vortexed for 30 s. […]

In the case of CCOC(=O)OC(CC)OC(=O)[C@@H](C)c1ccc(CC(C)C)cc1 (stereo partly drawn) [N9(S)], the “drug-time curve of dexibuprofen in vivo versus arginine solution of dexibuprofen (in words)” value ([1]; PEG400 solubilized solution) is reported as “basically coincide”, the “drug-time curve of dexibuprofen in vivo versus arginine solution of dexibuprofen (in words)” value ([1]; emulsion injection) is reported as “basically coincide” and the “Remaining amount of a prodrug compound (%)” value ([2]; 37° C., 120 min) is reported as 45.0 ± 2.1%. For the same compound, the “hydrolysis / metabolic rate in plasma (in words)” value ([2]; comparison between isomers) was “faster hydrolysis rate in plasma than N9(R); also recorded: faster metabolic rate than the racemate N9”.
